In ChEMBL document CHEMBL1201862, “PubChem BioAssay data set” (2004):
Activity calls are given as the source filed them.

Experiments:
[1] = MC4R antagonists, dose response, counter-screen for LGR2 antagonist project, cell-based, plate reader, cherry pick (AID 743444); assay type: functional;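 further: transfected HEK 293 cells stimulated with alpha-MSH peptide; potency of inhibitors of the alpha-MSH evoked signal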
[2] = molecular target: T1, Delta-type opioid receptor (Homo sapiens, UniProt P41143); assay: HTS Image-Based Screen for Antagonists of the DOR Receptor. [Related pubchem assays (depositor defined):AID1777, AID1785, AID1786, AID2133]; assay type: functional
T1 sequence (P41143 whole entry): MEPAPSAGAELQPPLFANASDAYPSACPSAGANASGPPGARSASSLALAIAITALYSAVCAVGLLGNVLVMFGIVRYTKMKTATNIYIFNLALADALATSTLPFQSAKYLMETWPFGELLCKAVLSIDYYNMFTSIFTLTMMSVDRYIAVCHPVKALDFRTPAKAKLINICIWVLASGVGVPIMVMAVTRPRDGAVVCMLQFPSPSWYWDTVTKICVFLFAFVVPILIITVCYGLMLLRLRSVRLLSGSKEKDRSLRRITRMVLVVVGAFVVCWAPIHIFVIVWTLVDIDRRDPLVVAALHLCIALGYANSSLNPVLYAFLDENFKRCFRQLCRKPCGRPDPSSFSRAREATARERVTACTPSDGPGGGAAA

[3] = cytotoxicity toward NIH3T3 fibroblasts, dose response, counter-screen, cell-based, ATP luminescence, mouse fibroblasts (AID 2010); assay type: functional;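 further: cells exposed to compound for about 90 hours before reading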
[4] = HepG2 cell cytotoxicity, dose response, cytotoxicity control, plate reader, cherry-pick, antagonist series (AID 743416); assay type: functional, cell-based
[5] = molecular target: Kappa-type opioid receptor (Homo sapiens, UniProt P41145); assay type: functional
Sequence of Kappa-type opioid receptor (P41145 whole entry): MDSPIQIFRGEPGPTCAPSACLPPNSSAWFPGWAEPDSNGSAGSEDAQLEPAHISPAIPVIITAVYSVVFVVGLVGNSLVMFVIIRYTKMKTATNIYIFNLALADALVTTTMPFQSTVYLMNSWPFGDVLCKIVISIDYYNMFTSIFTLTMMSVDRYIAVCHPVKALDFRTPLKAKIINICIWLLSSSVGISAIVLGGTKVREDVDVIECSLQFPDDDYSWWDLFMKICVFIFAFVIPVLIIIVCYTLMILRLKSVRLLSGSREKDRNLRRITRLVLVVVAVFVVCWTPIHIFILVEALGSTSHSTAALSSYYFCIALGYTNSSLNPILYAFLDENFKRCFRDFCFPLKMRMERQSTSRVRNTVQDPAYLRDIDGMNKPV

[6] = molecular target: T1, Delta-type opioid receptor; assay: HTS Image-Based Screen for Agonists of the DOR Receptor. [Related pubchem assays (depositor defined):AID1777, AID1786, AID2133]; assay type: functional
[7] = Counterscreen for AddAB inhibitors: absorbance-based bacterial cell-based high throughput dose response assay for inhibitors of bacterial viability. [Related pubchem assays (depositor defined):AID435030, AID449728, AID449731, AID488942, AID488955, AID488956]; assay type: functional
[8] = molecular target: T2, Microphthalmia-associated transcription factor (Homo sapiens, UniProt O75030); assay: TRPM1 promoter luciferase signal decrease, dose response, MITF inhibitor project, cell-based, SK-MEL-5, cherry-picked, set 3 (AID 493073); assay type: functional
T2 sequence (O75030 whole entry): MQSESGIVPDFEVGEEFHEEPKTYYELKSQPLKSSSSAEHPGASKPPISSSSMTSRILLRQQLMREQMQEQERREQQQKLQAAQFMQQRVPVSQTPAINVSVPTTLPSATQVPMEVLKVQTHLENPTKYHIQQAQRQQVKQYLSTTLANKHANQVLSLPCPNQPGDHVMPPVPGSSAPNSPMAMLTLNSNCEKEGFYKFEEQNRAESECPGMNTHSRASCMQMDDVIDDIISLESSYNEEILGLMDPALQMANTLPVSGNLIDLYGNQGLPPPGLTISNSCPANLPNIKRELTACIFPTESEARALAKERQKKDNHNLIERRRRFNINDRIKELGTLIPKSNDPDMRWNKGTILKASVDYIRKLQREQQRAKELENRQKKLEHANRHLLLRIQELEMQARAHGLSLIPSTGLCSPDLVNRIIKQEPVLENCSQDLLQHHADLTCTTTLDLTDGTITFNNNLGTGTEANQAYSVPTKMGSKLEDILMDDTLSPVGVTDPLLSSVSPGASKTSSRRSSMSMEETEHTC

[9] = tested on: Streptococcus sp. 'group A'; assay: growth inhibition of control SK(-) GAS strain, dose response, counter-screen for streptokinase expression inhibitor project, luminescence, kanamycin, BacTiterGlo, confirmation (AID 1900); assay type: functional, organism-based
[10] = molecular target: T3, Serine/threonine-protein phosphatase (Candida dubliniensis (strain CD36 / CBS 7987 / NCPF 3949 / NRRLY-17841) (Yeast), UniProt B9W6M3); assay: calcineurin pathway inhibitors in yeast reporter, dose response, S. cerevisiae, CDRE-lacZ, luminescence, secondary (AID 2388); assay type: functional, cell-based;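 further: yeast reporter cells carrying a calcineurin-responsive lacZ construct stimulated with calcium chloride; luminescent beta-galactosidase reporter signal in whole cells rather than isolated phosphatase activity; potency for inhibition where a drop in reporter signal means calcineurin blockade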
T3 sequence (B9W6M3 whole entry): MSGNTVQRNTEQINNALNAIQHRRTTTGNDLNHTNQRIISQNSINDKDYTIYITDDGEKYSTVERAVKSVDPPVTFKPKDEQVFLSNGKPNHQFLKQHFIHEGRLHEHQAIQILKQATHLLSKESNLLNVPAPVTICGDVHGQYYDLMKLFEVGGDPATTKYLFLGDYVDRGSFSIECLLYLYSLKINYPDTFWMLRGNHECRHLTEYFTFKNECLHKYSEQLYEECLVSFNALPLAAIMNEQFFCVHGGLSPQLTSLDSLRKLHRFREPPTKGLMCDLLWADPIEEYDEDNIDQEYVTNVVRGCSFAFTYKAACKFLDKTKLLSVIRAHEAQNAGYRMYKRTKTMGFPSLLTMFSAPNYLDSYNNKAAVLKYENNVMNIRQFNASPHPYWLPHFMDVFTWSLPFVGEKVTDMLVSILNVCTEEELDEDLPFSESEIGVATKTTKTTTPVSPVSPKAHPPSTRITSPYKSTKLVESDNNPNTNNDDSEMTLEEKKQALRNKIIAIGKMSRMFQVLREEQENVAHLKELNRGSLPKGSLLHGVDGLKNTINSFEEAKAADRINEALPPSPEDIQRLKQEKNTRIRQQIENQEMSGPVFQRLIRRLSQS

[11] = molecular target: ATP-dependent molecular chaperone HSP82 (Candida albicans (strain WO-1) (Yeast), UniProt C4YTQ8); assay: loss of DOC-induced GRE-beta-galactosidase reporter signal, dose response, Hsp90 inhibitor project, S. cerevisiae, luminescence (AID 2400); assay type: functional, cell-based;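 further: beta-galactosidase luminescence from glucocorticoid response element reporter as proxy for Hsp90 function; inhibitor potency where signal loss means Hsp90 inhibition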
Sequence of ATP-dependent molecular chaperone HSP82 (C4YTQ8 whole entry): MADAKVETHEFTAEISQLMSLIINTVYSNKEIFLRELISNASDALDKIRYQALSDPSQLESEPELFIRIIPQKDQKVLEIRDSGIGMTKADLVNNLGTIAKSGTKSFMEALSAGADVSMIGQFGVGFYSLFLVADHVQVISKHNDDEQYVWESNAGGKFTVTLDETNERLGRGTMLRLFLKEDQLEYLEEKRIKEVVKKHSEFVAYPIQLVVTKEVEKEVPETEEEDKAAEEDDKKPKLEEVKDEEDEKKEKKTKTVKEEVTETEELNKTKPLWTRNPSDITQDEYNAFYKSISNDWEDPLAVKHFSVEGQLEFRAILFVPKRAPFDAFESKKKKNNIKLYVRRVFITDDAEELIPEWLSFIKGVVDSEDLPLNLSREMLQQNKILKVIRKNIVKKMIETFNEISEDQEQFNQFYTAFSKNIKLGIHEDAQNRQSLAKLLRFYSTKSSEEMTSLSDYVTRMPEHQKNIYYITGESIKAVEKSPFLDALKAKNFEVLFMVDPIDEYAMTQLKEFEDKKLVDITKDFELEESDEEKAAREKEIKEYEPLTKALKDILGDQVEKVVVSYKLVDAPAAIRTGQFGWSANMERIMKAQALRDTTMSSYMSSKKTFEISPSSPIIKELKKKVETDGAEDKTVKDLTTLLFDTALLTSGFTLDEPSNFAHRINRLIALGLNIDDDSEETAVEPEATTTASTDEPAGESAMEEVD

[12] = molecular target: T4, Sentrin-specific protease 7 (Homo sapiens, UniProt Q9BQF6); assay: SENP7 protease inhibitors, SAR follow-up, biochemical, luminescence (AID 504497); assay type: functional
T4 sequence (Q9BQF6 whole entry): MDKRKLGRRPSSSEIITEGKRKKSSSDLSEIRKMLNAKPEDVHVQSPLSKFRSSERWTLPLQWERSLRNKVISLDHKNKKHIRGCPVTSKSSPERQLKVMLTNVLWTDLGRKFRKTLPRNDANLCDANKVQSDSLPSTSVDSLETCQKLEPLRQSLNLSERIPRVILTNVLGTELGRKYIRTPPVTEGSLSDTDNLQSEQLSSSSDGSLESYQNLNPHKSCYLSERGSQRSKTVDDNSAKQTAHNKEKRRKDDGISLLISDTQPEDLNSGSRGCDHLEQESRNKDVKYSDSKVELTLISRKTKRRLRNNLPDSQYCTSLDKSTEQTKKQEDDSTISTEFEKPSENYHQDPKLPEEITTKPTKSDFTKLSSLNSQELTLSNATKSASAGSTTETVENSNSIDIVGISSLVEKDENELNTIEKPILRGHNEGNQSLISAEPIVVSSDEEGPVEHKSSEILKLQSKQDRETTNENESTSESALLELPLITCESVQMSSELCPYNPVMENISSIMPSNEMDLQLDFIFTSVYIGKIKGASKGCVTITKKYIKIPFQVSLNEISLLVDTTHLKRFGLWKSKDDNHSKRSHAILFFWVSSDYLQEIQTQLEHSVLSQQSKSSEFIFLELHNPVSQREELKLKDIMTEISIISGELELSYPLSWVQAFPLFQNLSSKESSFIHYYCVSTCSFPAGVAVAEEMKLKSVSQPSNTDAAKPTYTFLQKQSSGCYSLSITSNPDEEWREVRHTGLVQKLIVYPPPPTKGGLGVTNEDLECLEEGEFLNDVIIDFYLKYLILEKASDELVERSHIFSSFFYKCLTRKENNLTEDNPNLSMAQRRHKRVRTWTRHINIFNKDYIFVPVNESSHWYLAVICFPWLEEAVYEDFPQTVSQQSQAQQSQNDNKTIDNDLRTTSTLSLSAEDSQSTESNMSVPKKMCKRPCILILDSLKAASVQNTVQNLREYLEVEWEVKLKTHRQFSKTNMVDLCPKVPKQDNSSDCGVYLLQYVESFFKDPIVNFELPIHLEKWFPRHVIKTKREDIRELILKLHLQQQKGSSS

For `COc1cc(NC(=O)Cn2ncc(Cl)c(Cl)c2=O)c(C)cc1[N+](=O)[O-]`, the AC50 [1] was 29 µM (active), the IC50 [2] was > 32 µM (inactive) and the EC50 [3] was 3.17 µM (active). For the same compound, the AC50 [4] was 9.1 µM (active), the IC50 [5] was 12.9 µM (active) and the EC50 [6] was > 32 µM (inactive).

In the case of `Cc1ccc(C)c(S(=O)(=O)N2CCN(Cc3ccc(O)c4ncccc34)CC2)c1`, the IC50 [7] was > 119 µM (inactive), the AC50 [8] was 4.44 µM (active) and the EC50 [9] was 6.87 µM (active). The EC50 [10] was 36 µM (active) and the EC50 [11] was > 160 µM (inactive).

For `Oc1ccc(/C=N\Nc2cc(N3CCOCC3)nc(N3CCOCC3)n2)c(O)c1`, the IC50 [12] was 78 µM (active).
